Assay results published in ChEMBL document CHEMBL1147288, “Isolation of flavonoids and a chalcone from Helichrysum odoratissimum and synthesis of helichrysetin” (1989).
≈ marks a conversion by molar mass, not a printed value.

How the values were obtained:
Escherichia coli = assay: Antibacterial activity against Escherichia coli ATCC 25922 after 24 to 48 hrs at 37 degC by liquid dilution method; type: functional
Shigella dysenteriae = assay: Antibacterial activity against Shigella dysenteriae after 24 to 48 hrs at 37 degC by liquid dilution method; type: functional
Enterobacter cloacae = assay: Antibacterial activity against Enterobacter cloacae ATCC 23355 after 24 to 48 hrs at 37 degC by liquid dilution method; type: functional
Bacillus subtilis = assay: Antibacterial activity against Bacillus subtilis ATCC 6633 after 24 to 48 hrs at 37 degC by liquid dilution method; type: functional
Epidermophyton floccosum = assay: Antifungal activity against Epidermophyton floccosum after 7 days at 27 degC by liquid dilution method; type: functional
Streptococcus pyogenes = assay: Antibacterial activity against Streptococcus pyogenes ATCC 19651 after 24 to 48 hrs at 37 degC by liquid dilution method; type: functional
Serratia marcescens = assay: Antibacterial activity against Serratia marcescens ATCC 8100 after 24 to 48 hrs at 37 degC by liquid dilution method; type: functional
Salmonella typhimurium = assay: Antibacterial activity against Salmonella Typhimurium ATCC 14028 after 24 to 48 hrs at 37 degC by liquid dilution method; type: functional, Salmonella enterica subsp. enterica serovar Typhimurium; conditions: Salmonella enterica
Aspergillus flavus = assay: Antifungal activity against Aspergillus flavus after 7 days at 27 degC by liquid dilution method; type: functional
Microsporum canis = assay: Antifungal activity against Microsporum canis after 7 days at 27 degC by liquid dilution method; type: functional
Staphylococcus aureus = assay: Antibacterial activity against Staphylococcus aureus […] after 24 to 48 hrs at 37 degC by liquid dilution method; type: functional
Proteus vulgaris = assay: Antibacterial activity against Proteus vulgaris […] after 24 to 48 hrs at 37 degC by liquid dilution method; type: functional
[1] = system: Mycolicibacterium smegmatis; assay: Antibacterial activity against Mycobacterium smegmatis ATCC 607 after 24 to 48 hrs at 37 degC by liquid dilution method; type: functional
Ralstonia solanacearum = assay: Antibacterial activity against Pseudomonas solanacearum after 24 to 48 hrs at 37 degC by liquid dilution method; type: functional
Candida albicans = assay: Antifungal activity against Candida albicans CBS 562 after 24 to 48 hrs at 37 degC by liquid dilution method; type: functional
Klebsiella pneumoniae = assay: Antibacterial activity against Klebsiella pneumoniae ATCC 13883 after 24 to 48 hrs at 37 degC by liquid dilution method; type: functional
Pseudomonas aeruginosa = assay: Antibacterial activity against Pseudomonas aeruginosa ATCC 27853 after 24 to 48 hrs at 37 degC by liquid dilution method; type: functional
Paecilomyces = assay: Antifungal activity against Paecilomyces after 7 days at 27 degC by liquid dilution method; type: functional

Compound	MIC (Escherichia coli) [µg/mL]	MIC (Shigella dysenteriae) [µg/mL]	MIC (Enterobacter cloacae) [µg/mL]	MIC (Bacillus subtilis) [µg/mL]	MIC (Streptococcus pyogenes) [µg/mL]	MIC (Serratia marcescens) [µg/mL]	MIC (Salmonella typhimurium) [µg/mL]	MIC (Staphylococcus aureus) [µg/mL]	MIC (Proteus vulgaris) [µg/mL]	MIC [1] [µg/mL]	MIC (Ralstonia solanacearum) [µg/mL]	MIC (Candida albicans) [µg/mL]	MIC (Klebsiella pneumoniae) [µg/mL]	MIC (Pseudomonas aeruginosa) [µg/mL]	further results
COc1c(-c2ccc(O)c(O)c2)oc2cc(O)cc(O)c2c1=O [3-O-METHYLQUERCETIN]	100 (≈ 316 µM)	100 (≈ 316 µM)	100 (≈ 316 µM)	50 (≈ 158 µM)	100 (≈ 316 µM)	100 (≈ 316 µM)	50 (≈ 158 µM)	6.25 (≈ 19.8 µM)	100 (≈ 316 µM)	100 (≈ 316 µM)	100 (≈ 316 µM)	12.5 (≈ 39.5 µM)	100 (≈ 316 µM)	100 (≈ 316 µM)	MIC (Epidermophyton floccosum; 168 h): 100 µg/mL (≈ 316 µM); MIC (Aspergillus flavus; 168 h): 100 µg/mL (≈ 316 µM); MIC (Microsporum canis; 168 h): 100 µg/mL (≈ 316 µM); MIC (Paecilomyces; 168 h): 100 µg/mL (≈ 316 µM)
CN(C)[C@@H]1C(O)=C(C(N)=O)C(=O)[C@@]2(O)C(O)=C3C(=O)c4c(O)cccc4[C@@](C)(O)[C@H]3C[C@@H]12.Cl [TETRACYCLINE HYDROCHLORIDE]	6.25	0.78	12.5	3.12	6.25	25	12.5	100	25	100	100	–	12.5	100	–
NYSTATIN	–	–	–	–	–	–	–	–	–	–	–	0.78	–	–	MIC (Epidermophyton floccosum): 100 µg/mL; MIC (Aspergillus flavus): 12.5 µg/mL; MIC (Microsporum canis): 50 µg/mL; MIC (Paecilomyces): 50 µg/mL
